Assay results from patent US20260034091A1, “Compositions and Methods for Treating Metabolic Disorders” (The Regents of the University of California, priority 2022, published 2026).

System: CDAHFD-induced late stage NAFLD/NASH in mice
Test: Benchmark study against Firsocostat and Fenofibrate in CDAHFD-induced late stage NAFLD/NASH
Format: in vivo, C57BL/6J male mice
Details: QD oral gavage four weeks; TOFA 250 mg/kg, Firsocostat 5 mg/kg, Fenofibrate 50 mg/kg
Experimental: Six-week-old C57BL/6J male mice were fed with a L-amino acid diet with 60 kcal % fat with 0.1% methionine and no added choline (CDAHFD; Research Diets A06071302i) for eight weeks. Mice were randomly assigned to treatment groups of either a vehicle (control), 250 mg/kg of TOFA, 5 mg/kg of Firsocostat (Gilead Sciences), 50 mg/kg of Fenofibrate, or a combined dose of 5 mg/kg Firsocostat and 50 mg/kg Fenofibrate. All treatments were delivered QD by oral gavage for an additional four weeks. Mice weights and food intake were monitored during the treatment time course. Upon study termination at 12 weeks, liver and serum samples were collected. Serum liver damage biomarkers, ALT and AST, were measured by commercially available kits (abcam 105134 and abcam 105135, respectively). Hepatic and serum triglyceride levels were measured from a commercially available kit (abcam65336). Total RNA was extracted from liver tissues (Qiagen RNeasy kit 74106), and cDNA was prepared (BioRAD iScript™ Reverse Transcription) according to manufacturer's protocols. Quantitative PCR (qPCR) was performed with fast SYBR Green Mix (ThermoFisher A25742) on the QuantStudio6 System (Applied Biosciences). Protein expression levels of liver samples were measured by western blot using antibodies against VLDLR (AF2258, 1:2000), CPT1A (CST12252, 1:1000) and Histone H3 (CST9715, 1:1000). Membranes were developed using a HRP secondary antibody (1:5000) and visualized using an enhanced chemiluminescent HRP substrate (Thermo34577). Additional liver samples were fixed in 4% paraformaldehyde and embedded in paraffin blocks for sectioning and subsequently stained with hematoxylin and eosin (H&E).

COc1ccccc1[C@H](Cn1c(=O)n(C(C)(C)C(=O)O)c(=O)c2c(C)c(-c3ncco3)sc21)OC1CCOCC1 [Firsocostat, reference compound]
serum ALT: decreases
serum AST: decreases
